Assay results from US8609610B2, “Inhibitors of the trypsin-like site of the proteasome and methods of use thereof” (Trustees of Dartmouth College, priority 2011, dated 2013).
Read-outs that look alike come from different tables or passages of the source.

Experiments:
[1] = test system: bortezomib-adapted cell lines AMO-1a and HL-60a; experiment: Combination in bortezomib-adapted cell lines; type: cell-based; settings: in combination with bortezomib or PR523
[2] = test system: trypsin-like sites (β2) of proteasome in MM cells; experiment: PROTEASOMEGLO assay of proteasome inhibition in MM cells; type: cell-based
[3] = molecular target: β2 (trypsin-like site) of proteasome in HEK-293T cells (Homo sapiens, UniProt P49720+Q99436); experiment: Competition assay in living HEK-293T cells with activity-based probe; type: cell-based; settings: 5 μM
Method: (§1) Proteasome inhibition in MM cells was measured with luminogenic substrates using PROTEASOMEGLO assay (Promega). […] An aliquot of culture was pelleted and medium was removed and replaced with PBS. The resulting cell suspension was mixed with luminogenic substrates in the manufacturer-provided lysis/assay buffer. After 3 minutes mixing on an orbital shaker, the plate was incubated in the dark for additional 17 minutes, followed by the measurements of the luminescence, performed in triplicate for each substrate/data point. Data were analyzed as for purified proteasomes. […] Cells (1×10^6 per well of a 6-well plate) were incubated with the inhibitors for 4 hours at 37° C. and this was followed by a 2 hour incubation with 5 μM BODIPY-TMR-epoxomicin. Subsequently, the medium was removed and the cells were washed with PBS and harvested. […] The supernatant was collected and the protein concentration was determined by the Bradford assay, and used to normalize gel loading. The samples were analysed by SDS-PAGE and fluorescent densitometry as described for competition experiment in cell lysates. IC50 values were calculated from three independent experiments using […] PRISM software.
(§2) Human embryonic kidney cells (some 1×10^6) were cultured in 6-well plates in DMEM containing 10% fetal calf serum, 10 units/mL penicillin and 10 μg/mL streptomycin in a 7% CO2 humidified incubator at 37° C. overnight. Part of the medium was taken and to this was added the appropriate inhibitor in DMSO (1 μL of a 1,000× stock solution), after which the medium was added to the cells. The cells were incubated with the inhibitors for 4 hours at 37° C. and this was followed by addition of MV151 (1 μL of a 5 mM stock solution in DMSO) and incubation for 2 hours at 37° C. Next, the medium was removed and the cells were washed with PBS and harvested. […] The supernatant was collected and the protein concentration was determined by the Bradford assay. All samples were normalized to the same protein concentration with lysis buffer.

β5 proteasome subunit = molecular target: T1, β5 proteasome subunit (Homo sapiens, UniProt P20618+P28074); experiment: Competition assay in HEK-293T cell lysate with MV151; type: biochemical; settings: HEK-293T lysate, 50 μM
T1 construct: Whole cell lysates of HEK-293T or EL-4 cells were made by sonication; endogenous in cells; host or cells: HEK-293T
Method: (§3) Whole cell lysates of HEK-293T or EL-4 cells were made by sonication in 3 volumes of lysis buffer containing 50 mM Tris pH 7.5, 1 mM DTT, 5 mM MgCl2, 250 mM sucrose, 2 mM ATP, 0.025% digitonin. Protein concentration was determined by the Bradford assay. Cell lysates (13.5 μg total protein for HEK lysates and 9 μg total protein for EL-4 lysates) were exposed to the inhibitors for 1 hour at 37° C. prior to incubation with MV151 (0.5 μM) or BODIPY-TMR-epoxomicin (0.5 μM) for an additional 1 hour at 37° C. Reaction mixtures were boiled with Laemmli's buffer containing (3-mercaptoethanol for 5 minutes before being resolved by 12.5% SDS-PAGE. In-gel detection of residual proteasome activity was performed in the wet gel slabs directly on the TYPHOON Variable Mode Imager (Amersham Biosciences) using the Cy3/Tamra settings (λex 532 nm, λem 560 nm) to detect MV151, BODIPY-TMR-epoxomicin and Cy2/Fam settings (λex 488 nm, λem 520 nm) to detect compounds 39 and 59.
(§4) The inhibition potential of the inhibitors for each of the catalytically active subunits was assessed in competition assays employing extracts of human embryonic kidney cells (HEK-293T) and mouse lymphoma cells (EL-4) in combination with the fluorescent broad spectrum proteasome probe MV151 (Verdoes, et al. (2006) Chem. Biol. 13:1217-1226). Competitive inhibition of a proteasome active site is reflected by the disappearance of the corresponding band on a gel.

[4] = test system: bortezomib-refractory primary myeloma cells from patients; experiment: Combination in bortezomib-refractory primary myeloma cells; type: cell-based; settings: in combination with bortezomib or PR523; primary cells from three patients
Cathepsin B, H, L, S = experiment: Cathepsin activity with pan-cathepsin substrate Z-FR-amc; type: cell-based; settings: NCI-H929 cells, 6 hour treatment
Summary of the method: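 Extracts of cytosol-less cells were used throughout. Cathepsins B, H, L and S were assayed with the fluorogenic Z-FR-amc substrate at pH 6.0. Cathepsin D was measured with the SENSOLYTE 520 fluorometric kit.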

RPMI-8226 cells = experiment: ALAMAR BLUE cell viability assay; type: cell-based; settings: RPMI-8226 cells
Summary of the method: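 Myeloma lines were grown in RPMI-1640 with 10% FBS; viability of myeloma cells was read by ALAMAR BLUE mitochondrial dye conversion. PBMNC viability used CELL TITER-GLO ATP luminescence. Caspase-3/7 activity in NCI-H929 and MM1.R was measured with the APO-ONE homogeneous assay.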

[5] = test system: myeloma cells U266 and AMO-1; experiment: Cytotoxicity in combination with β5-selective proteasome inhibitors; type: cell-based; settings: PR671A with bortezomib or PR523
[6] = molecular target: T2, trypsin-like sites (β2) of proteasome in MM cells (Homo sapiens, UniProt Q99436); experiment: PROTEASOMEGLO assay of proteasome inhibition in MM cells; type: cell-based; settings: 6 hours, >>30 no inhibition at 30 μM, >30 inhibition 10-50% at 30 μM, read-out: IC50 for sites: Tr-L
T2 construct: endogenous in cells; host or cells: NCI-H929, RPMI-8226 and other MM cell lines
T2 sequence (Q99436 44-277): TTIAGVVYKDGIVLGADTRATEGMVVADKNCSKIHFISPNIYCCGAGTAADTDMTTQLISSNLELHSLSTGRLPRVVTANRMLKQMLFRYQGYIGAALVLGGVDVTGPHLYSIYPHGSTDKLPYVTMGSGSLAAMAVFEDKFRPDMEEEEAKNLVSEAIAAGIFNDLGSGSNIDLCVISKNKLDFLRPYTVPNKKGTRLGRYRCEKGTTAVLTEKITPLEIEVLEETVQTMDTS

[7] = molecular target: β5 (chymotrypsin-like site) of proteasome in HEK-293T cells (Homo sapiens, UniProt P20618+P28074); experiment: Competition assay in living HEK-293T cells with activity-based probe; type: cell-based; settings: concentrations up to 50 μM
Method: as §1, §2

β2 proteasome subunit = molecular target: T3, β2 proteasome subunit (Mus musculus, UniProt P70195+Q9R1P1); experiment: Competition assay in EL-4 cell lysate with MV151; type: biochemical; settings: 0.5 μM
T3 construct: Whole cell lysates of HEK-293T or EL-4 cells were made by sonication; endogenous in cells; host or cells: EL-4

[8] = molecular target: chymotrypsin-like activity of yeast 20S proteasome (Saccharomyces cerevisiae, UniProt P23724+P30656); experiment: Yeast 20S core particle activity, substrate Suc-LLVY-amc; settings: read-out: IC50 for yeast 20S proteasome: Chym-L
Method: Proteasomes were pre-incubated with inhibitors for minutes, and inhibitors were present during activity assays. Fluorescence was measured at λexc=360, λem=460 nm using a Varian Cary Eclipse Fluorescence Spectrophotometer (Agilent Technologies).

[9] = molecular target: caspase-like site of 26S proteasomes (Oryctolagus cuniculus, UniProt A0A5F9DQW2); experiment: Inhibition of purified 26S proteasomes, substrate Ac-nLPnLD-amc; type: biochemical, rabbit; settings: >>30 no inhibition at 30 μM, >30 inhibition between 10 and 50% at 30 μM, read-out: IC50 for sites in 26S proteasomes: Casp-L
[10] = molecular target: T4, caspase-like sites (β1) of proteasome in MM cells (Homo sapiens, UniProt P28072+Q99436); experiment: PROTEASOMEGLO assay of proteasome inhibition in MM cells; type: cell-based; settings: read-out: IC50 for sites: Casp-L, 6 hours, >>30 no inhibition at 30 μM, >30 inhibition 10-50% at 30 μM
T4 sequence (P28072 35-239): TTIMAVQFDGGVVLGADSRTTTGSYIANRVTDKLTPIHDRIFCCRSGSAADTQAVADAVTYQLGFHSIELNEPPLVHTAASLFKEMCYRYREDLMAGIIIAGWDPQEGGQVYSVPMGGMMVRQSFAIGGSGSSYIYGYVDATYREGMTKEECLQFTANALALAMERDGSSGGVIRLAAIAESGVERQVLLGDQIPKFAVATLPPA
T4 sequence (Q99436 44-277): T2 sequence (Q99436 44-277)

β2i proteasome subunit = molecular target: T5, β2i proteasome subunit (Mus musculus, UniProt O35955+Q9R1P1); experiment: Competition assay in EL-4 cell lysate with MV151; type: biochemical; settings: EL-4 lysate
T5 construct: Whole cell lysates of HEK-293T or EL-4 cells were made by sonication; endogenous in cells; host or cells: EL-4
Method: as §3
as §4, with “Competitive inhibition of a proteasome active site is reflected by the disappearance of the corresponding band on a gel.” left out

Sequence of caspase-like site of 26S proteasomes (A0A5F9DQW2 1-212): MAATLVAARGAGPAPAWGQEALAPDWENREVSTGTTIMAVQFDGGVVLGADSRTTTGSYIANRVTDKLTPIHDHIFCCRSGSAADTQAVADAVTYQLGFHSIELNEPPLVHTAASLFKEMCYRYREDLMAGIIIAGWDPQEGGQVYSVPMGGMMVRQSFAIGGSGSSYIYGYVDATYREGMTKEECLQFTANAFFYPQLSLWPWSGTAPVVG

Compound | effect on bortezomib resistance [1] | difference in IC50 for trypsin-like activity between NCI-H929 and RPMI-8226 [2] | time to steady-state proteasome inhibition ([2]; RPMI-8226 cells) [h] | inhibition of β2 activity in living cells ([3]; 4 hours) | inhibition of β5 in cell lysate (β5 proteasome subunit) | effect on bortezomib resistance [4] | inhibition of cathepsins (Z-FR-amc) (Cathepsin B, H, L, S) | sensitization to bortezomib (RPMI-8226 cells) | sensitization to carfilzomib (RPMI-8226 cells) | cytotoxicity of combination [5] | IC50 ([6]; NCI-H929 cells) [µM] | IC50 ([6]; RPMI-8226 cells) [µM] | β5 in living cells [7] | β2 band in living cells [3] | inhibition of β2 in EL-4 lysate (β2 proteasome subunit) | IC50 [8] [µM] | IC50 [9] [µM] | IC50 ([10]; NCI-H929 cells) [µM] | IC50 ([10]; RPMI-8226 cells) [µM] | concentration at which inhibition of β2i starts (β2i proteasome subunit) [µM]
CC(C)C[C@H](NC(=O)[C@H](Cc1ccccc1)N=[N+]=[N-])C(=O)N[C@@H](CC(C)C)C(=O)N[C@H](/C=C/S(C)(=O)=O)Cc1ccc(CN)cc1 [Compound 4a, N3Phe-Leu-Leu-Phe (4-CH2NH2) VS] | overcomes bortezomib resistance | three-fold | 1 | inhibiting (almost) all β2 activity | completely blocked β5 | overcomes bortezomib resistance | Partial inhibition of cathepsins | sensitized RPMI-8226 cells to bortezomib | slightly more potent sensitizer to carfilzomib than was NC-022 | synergistic cytotoxicity |  |  |  |  |  |  |  |  |  | 
Cc1c(O)cccc1C(=O)N[C@H](C(=O)N[C@@H](CO)C(=O)N[C@H](/C=C/S(C)(=O)=O)Cc1ccc(CN)cc1)C(C)C [Compound 48, HMB-Val-Ser-Phe (4-CH2NH2)-VS] |  | greater than ten-fold |  |  | Only a part of the β5 activity was inhibited |  | did not cause any inhibition of cathepsins |  |  |  | 0.2 | 3.2 | not affected at all | almost disappeared | almost completely blocked | 19.3 | 11 | > 30 | > 30 | 5
